Test results reported in ChEMBL document CHEMBL1201862, “PubChem BioAssay data set” (2004).
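Each compound was tested at five concentrations against cells in 96-well plates for 48 hours. The concentration for 50% growth inhibition is given as GI50.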 Active and inactive are the calls of the source. Cut-off read from the data, not from the text of the source: active = GI50 up to about 1.1 µM and inactive = higher.

Columns and labels:
Test in all cases: inhibition of tumour cell growth, NCI panel, 48 h
[1] = system: EKVX
[2] = system: LOX IMVI
[3] = system: COLO 205
[4] = system: M19-MEL
[5] = system: HCT-116
[6] = system: RPMI-8226
[7] = system: CCRF-CEM
[8] = system: SF-268
[9] = system: K562
[10] = system: ACHN
[11] = system: OVCAR-3
[12] = system: SK-MEL-2
[13] = system: LXFL 529
[14] = system: HCT-15
[15] = system: UACC-62
[16] = system: XF498
[17] = system: DMS-114
[18] = system: HOP-92
[19] = system: MOLT-4
[20] = system: Malme-3M
[21] = system: HCC 2998
[22] = system: CAKI-1
[23] = system: HOP-62
[24] = system: SNB-75
[25] = system: SW-620
[26] = system: OVCAR-4
[27] = system: SK-OV-3
[28] = system: SR
[29] = system: IGROV-1
[30] = system: HL-60
[31] = system: NCI-H522
[32] = system: M14
[33] = system: DMS-273
[34] = system: KM12
[35] = system: SN12C
[36] = system: SK-MEL-28
[37] = system: UACC-257
[38] = system: NCI-H460
[39] = system: 786-0
[40] = system: SNB-78
[41] = system: NCI-H23
[42] = system: DLD-1
[43] = system: SF-539
[44] = system: SNB-19
[45] = system: UO-31
[46] = system: SK-MEL-5
[47] = system: OVCAR-5
[48] = system: TK-10
[49] = system: RXF 393
[50] = system: NCI-H226
[51] = system: HT-29
[52] = system: A549
[53] = system: U-251
[54] = system: SF-295
[55] = system: HOP-18
[56] = system: KM-20L2
[57] = system: OVCAR-8
[58] = system: A498

## O=c1n(CCCCn2c(=O)n(CC3CS3)c3ccccc32)c2ccccc2n1CC1CS1 (stereo not drawn)
[1]
  GI50: 24.3 µM (inactive)
[2]
  GI50: 3.14 µM (inactive)
[3]
  GI50: 19 µM (inactive)
[4]
  GI50: 19.2 µM (inactive)
[5]
  GI50: 18.7 µM (inactive)
[6]
  GI50: 10.9 µM (inactive)
[7]
  GI50: 17.1 µM (inactive)
[8]
  GI50: 24.9 µM (inactive)
[9]
  GI50: 15.7 µM (inactive)
[10]
  GI50: 25.1 µM (inactive)
[11]
  GI50: 10.4 µM (inactive)
[12]
  GI50: 11.9 µM (inactive)
[13]
  GI50: 14.3 µM (inactive)
[14]
  GI50: 18.2 µM
[15]
  GI50: > 10 µM (inactive)
[16]
  GI50: 6.56 µM (inactive)
[17]
  GI50: > 10 µM (inactive)
[18]
  GI50: 23.9 µM (inactive)
[19]
  GI50: 1.95 µM (inactive)
[20]
  GI50: 10.5 µM (inactive)
[21]
  GI50: 19.7 µM (inactive)
[22]
  GI50: 17.3 µM (inactive)
[23]
  GI50: 22.3 µM (inactive)
[24]
  GI50: 26.1 µM (inactive)
[25]
  GI50: 18.6 µM (inactive)
[26]
  GI50: 15.5 µM (inactive)
[27]
  GI50: 58.1 µM (inactive)
[28]
  GI50: 3.87 µM (inactive)
[29]
  GI50: 13.5 µM (inactive)
[30]
  GI50: 2.17 µM (inactive)
[31]
  GI50: 16.6 µM (inactive)
[32]
  GI50: 8.99 µM (inactive)
[33]
  GI50: 19.2 µM (inactive)
[34]
  GI50: 11.4 µM (inactive)
[35]
  GI50: 14.1 µM (inactive)

## COCC(O)CN1C(N)=NC(O)C1O (stereo not drawn)
[1]
  GI50: > 100 µM (inactive)
[2]
  GI50: > 100 µM (inactive)
[3]
  GI50: > 100 µM (inactive)
[36]
  GI50: > 100 µM (inactive)
[4]
  GI50: > 100 µM (inactive)
[37]
  GI50: > 100 µM (inactive)
[8]
  GI50: > 100 µM (inactive)
[38]
  GI50: > 100 µM (inactive)
[10]
  GI50: > 100 µM (inactive)
[39]
  GI50: > 100 µM (inactive)
[12]
  GI50: > 100 µM (inactive)
[40]
  GI50: > 100 µM (inactive)
[13]
  GI50: > 100 µM (inactive)
[41]
  GI50: > 100 µM (inactive)
[42]
  GI50: > 100 µM (inactive)
[43]
  GI50: > 100 µM (inactive)
[17]
  GI50: > 100 µM (inactive)
[44]
  GI50: > 100 µM (inactive)
[45]
  GI50: > 100 µM (inactive)
[46]
  GI50: > 100 µM (inactive)
[18]
  GI50: > 100 µM (inactive)
[20]
  GI50: > 100 µM (inactive)
[47]
  GI50: > 100 µM (inactive)
[48]
  GI50: > 100 µM (inactive)
[21]
  GI50: > 100 µM (inactive)
[22]
  GI50: > 100 µM (inactive)
[49]
  GI50: > 100 µM (inactive)
[23]
  GI50: > 100 µM (inactive)
[50]
  GI50: > 100 µM (inactive)
[24]
  GI50: > 100 µM (inactive)
[25]
  GI50: > 100 µM (inactive)
[51]
  GI50: > 100 µM (inactive)
[52]
  GI50: > 100 µM (inactive)
[53]
  GI50: > 100 µM (inactive)
[28]
  GI50: > 100 µM (inactive)
[54]
  GI50: > 100 µM (inactive)
[55]
  GI50: > 100 µM (inactive)
[56]
  GI50: > 100 µM (inactive)
[30]
  GI50: > 100 µM (inactive)
[31]
  GI50: > 100 µM (inactive)
[57]
  GI50: > 100 µM (inactive)
[32]
  GI50: > 100 µM (inactive)
[33]
  GI50: > 10 µM (inactive)
[34]
  GI50: > 100 µM (inactive)
[35]
  GI50: > 100 µM (inactive)

## CCOC(=O)C(=O)Nc1nc2ccc(OC)cc2s1
[1]
  GI50: > 100 µM (inactive)
[2]
  GI50: > 100 µM (inactive)
[3]
  GI50: > 100 µM (inactive)
[36]
  GI50: > 100 µM (inactive)
[4]
  GI50: > 100 µM (inactive)
[6]
  GI50: > 100 µM (inactive)
[7]
  GI50: > 100 µM (inactive)
[37]
  GI50: > 100 µM (inactive)
[8]
  GI50: > 100 µM (inactive)
[58]
  GI50: > 100 µM (inactive)
[9]
  GI50: > 100 µM (inactive)
[38]
  GI50: > 100 µM (inactive)
[10]
  GI50: > 100 µM (inactive)
[39]
  GI50: > 100 µM (inactive)
[11]
  GI50: > 100 µM (inactive)
[12]
  GI50: > 100 µM (inactive)
[40]
  GI50: > 100 µM (inactive)
[13]
  GI50: > 100 µM (inactive)
[41]
  GI50: > 100 µM (inactive)
[14]
  GI50: > 100 µM
[42]
  GI50: > 100 µM (inactive)
[15]
  GI50: > 100 µM (inactive)
[43]
  GI50: > 100 µM (inactive)
[44]
  GI50: > 100 µM (inactive)
[45]
  GI50: > 100 µM (inactive)
[46]
  GI50: > 100 µM (inactive)
[18]
  GI50: > 100 µM (inactive)
[19]
  GI50: > 100 µM (inactive)
[20]
  GI50: > 100 µM (inactive)
[47]
  GI50: > 100 µM (inactive)
[48]
  GI50: > 100 µM (inactive)
[21]
  GI50: > 100 µM (inactive)
[22]
  GI50: > 100 µM (inactive)
[23]
  GI50: > 100 µM (inactive)
[50]
  GI50: > 100 µM (inactive)
[24]
  GI50: > 100 µM (inactive)
[25]
  GI50: > 100 µM (inactive)
[26]
  GI50: > 100 µM (inactive)
[51]
  GI50: > 100 µM (inactive)
[27]
  GI50: > 100 µM (inactive)
[52]
  GI50: > 100 µM (inactive)
[53]
  GI50: > 100 µM (inactive)
[54]
  GI50: > 100 µM (inactive)
[29]
  GI50: > 100 µM (inactive)
[55]
  GI50: > 100 µM (inactive)
[56]
  GI50: > 100 µM (inactive)
[30]
  GI50: > 100 µM (inactive)
[31]
  GI50: > 10 µM (inactive)
[57]
  GI50: > 100 µM (inactive)
[32]
  GI50: > 100 µM (inactive)
[33]
  GI50: > 100 µM (inactive)
[34]
  GI50: > 100 µM (inactive)
[35]
  GI50: > 100 µM (inactive)
